Some results are limits rather than exact numbers.

The subject of the experiment is Eschericia coli strain ATCC25922. As to the kind of experiment: standard microdilution assay to determine minimum inhibitory concentrations (MICs). In kind it is cell-based. The conditions noted are these: Escherichia coli, ATCC25922, Eschericia coli strain ATCC25922, standard microdilution assay; read-out: E. coli ATCC25922 MIC. The method, boiled down:
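Broth microdilution per CLSI protocols, typically 100 µL final volume, against E. coli ATCC25922. MIC values scored as +/− against a cutoff of 16 micrograms/ml.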
As for `NCCCNCc1ccc(-c2c[nH]c(NCCc3nc4cc(F)c(F)cc4[nH]3)nc2=O)cc1F` [Compound 607], the MIC is over 16 µg/mL.

For `N=C(N)NCCCC[C@H](CCn1ccc(NC(N)=O)nc1=O)NCCCN` [Compound 125], the MIC was over 16 µg/mL.

Take `NCCCN(CCCN)Cc1ccc(-n2cc(F)c(N)nc2=O)cc1` [Compound 143]: the MIC was over 16 µg/mL.

Consider `NCCCN(CCCN)Cc1c(F)cc(-c2c[nH]c(NC(=O)Nc3cc(F)c(F)cc3F)nc2=O)cc1F` [Compound 295], for which the MIC is over 16 µg/mL.

Turning to `NCCCNCc1ccc(-c2c[nH]c(NC(=O)Nc3ccc(Cl)c(C(F)(F)F)c3)nc2=O)cc1F` [Compound 459], the MIC is over 16 µg/mL.

For the molecule `NCCC[C@H](N)CCCn1ccc(N)nc1=O` [Compound 116], the MIC was over 16 µg/mL.

For the molecule `O=C(Nc1nc(=O)c(-c2ccc(CNCCc3c[nH]c(=O)[nH]3)cc2)c[nH]1)Nc1ccccc1OC(F)(F)F` [Compound 448], the MIC is over 16 µg/mL.

`CN(C(=O)C[C@H](CCCNC(=N)N)NCCCN)C1CNC(NC(N)=O)=NC1=O` (stereo partly shown) [Compound 106]: the MIC was under 16 µg/mL.

On to `N#Cc1cccc(NC(=O)Nc2nc(=O)c(-c3ccc(CNCCCN)c(F)c3)c[nH]2)c1` [Compound 486], for which the MIC is over 16 µg/mL.

For the molecule `NCCCNCc1ccc(-c2c[nH]c(NC(=O)Nc3ccc(OC(F)(F)F)cc3)nc2=O)cc1F` [Compound 249], the MIC was under 16 µg/mL.

For the molecule `Cc1nc(-c2cccc(NC(=O)Nc3ccn(CCC[C@H](CCCNC(=N)N)NCCCN)c(=O)n3)c2)cs1` [Compound 166], the MIC is over 16 µg/mL.

As to `O=C(Nc1nc(=O)c(-c2ccc(CNCCCO)cc2)c[nH]1)Nc1ccccc1OC(F)(F)F` [Compound 277], the MIC was over 16 µg/mL.

In the case of `N=C(N)NCCCNC1CCN(c2c[nH]c(NC(=O)Nc3ccccc3OC(F)(F)F)nc2=O)C1` (stereo not shown) [Compound 431], the MIC is over 16 µg/mL.

On to `NCCCN[C@@H]1CCCCC1NC(=O)Nc1nc(=O)c(-c2ccc(CN)cc2)c[nH]1` (stereo partly shown) [Compound 1338], for which the MIC was over 16 µg/mL.

For `NCCCCN1CCC(c2c[nH]c(NC(=O)Nc3ccccc3OC(F)(F)F)nc2=O)CC1` [Compound 537], the minimum inhibitory concentration (MIC) is over 16 µg/mL.

On to `N=C(N)NCCCCN[C@H](CCCCNC(=N)N)CCn1ccc(NC(N)=O)nc1=O` [Compound 120], for which the MIC was over 16 µg/mL.

As for `NCCCCCN1CCC(c2c[nH]c(NC(=O)Nc3ccccc3OC(F)(F)F)nc2=O)CC1` [Compound 550], the MIC was over 16 µg/mL.

Turning to `O=C(Nc1nc(=O)c(-c2ccc(CNCCCO)cc2)c[nH]1)Nc1cc(F)c(F)cc1F` [Compound 276], the MIC was over 16 µg/mL.

Take `NCc1ccc(-c2c[nH]c(NC(=O)Nc3ccccc3OC(F)(F)F)nc2=O)cc1C(F)(F)F` [Compound 248]: the MIC was over 16 µg/mL.

Turning to `NCc1ccc(-c2c[nH]c(NC(=O)Nc3cc(F)c(F)cc3F)nc2=O)cc1` [Compound 238], the minimum inhibitory concentration (MIC) is over 16 µg/mL.

Consider `N#CCCCN(CCCN)Cc1ccc(-c2c[nH]c(NC(=O)Nc3ccccc3OC(F)(F)F)nc2=O)cc1` [Compound 398], for which the MIC was over 16 µg/mL.

For `N=C(N)NCCCNCc1ccc(-c2c[nH]c(NC(=O)NCCc3ccccc3OC(F)(F)F)nc2=O)cc1F` [Compound 513], the MIC was over 16 µg/mL.

As for `Cc1nc(-c2cccc(NC(=O)Nc3nc(=O)c(-c4ccc(CNCCCN)c(F)c4)c[nH]3)c2)cs1` [Compound 424], the minimal inhibitory concentration (MIC) is over 16 µg/mL.

Turning to `COc1nc(NC(=O)NCCc2nc3ccccc3o2)ncc1-c1ccc(CNCCCN)c(F)c1` [Compound 526], the MIC is over 16 µg/mL.

Regarding `NCCCNCc1ccc(-c2c[nH]c(NC(=O)Nc3cc(F)c(F)cc3F)nc2=O)cc1C(F)(F)F` [Compound 266], the minimum inhibitory concentration (MIC) is under 16 µg/mL.

Consider `NCCCCN1CCC(c2c[nH]c(Nc3nc4ccccc4[nH]3)nc2=O)CC1` [Compound 509], for which the MIC was over 16 µg/mL.

As to `N=C(N)NCCCN(CCCN)Cc1ccc(-n2ccc(NC(=O)Nc3ccc(F)c(F)c3)nc2=O)cc1` [Compound 223], the MIC is over 16 µg/mL.

As to `N=C(N)NCCCN(CCCN)Cc1ccc(-c2c[nH]c(NC(=O)NCCc3c(Cl)cccc3Cl)nc2=O)cc1` [Compound 477], the MIC is over 16 µg/mL.

As to `Cn1ccnc1CNCc1ccc(-c2c[nH]c(NC(=O)Nc3cc(F)c(F)cc3F)nc2=O)cc1` [Compound 299], the MIC is over 16 µg/mL.

`NCCCC(N)c1ccc(-n2ccc(NC(N)=O)nc2=O)cc1` (stereo not shown) [Compound 146]: the MIC was over 16 µg/mL.

As for `NCCCNCc1ccc(-c2c[nH]c(NC(=O)NCCCc3cc(F)c(F)cc3F)nc2=O)cc1F` [Compound 574], the MIC is over 16 µg/mL.

Source of the values: patent publication US9845297B2, “Antimicrobial compounds and methods of making and using the same” (Melinta Therapeutics, Inc., priority 2009, dated 2017).
